Assay results as given in PubChem BioAssay (NCI).
Where “and” joins values, the source holds several entries; their conditions need not be identical. Equal values may be shown once.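 1) Cells in 96-well plates. 2) Compound, 48 h, 5 concentrations. 3) Linear interpolation between surrounding doses. 4) Unreached endpoint = highest concentration. GI50 marks 50% less growth. The concentration for full growth arrest is given as TGI.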

Tests used:
Assay in all cases: growth of human tumour cells (NCI), 48 h
[1] = test system: NCI-H226 lung
[2] = test system: SF-539 CNS
[3] = test system: MDA-MB-231 breast
[4] = test system: MALME-3M melanoma
[5] = test system: NCI-H522 lung
[6] = test system: NCI-H460 lung
[7] = test system: NCI-H23 lung
[8] = test system: SK-OV-3 ovarian
[9] = test system: UACC-62 melanoma
[10] = test system: TK-10 renal

Row | SMILES | GI50 [1] | TGI [1] | GI50 [2] | TGI [2] | GI50 [3] | TGI [3] | GI50 [4] | TGI [4] | GI50 [5] | TGI [5] [µM] | GI50 [6] | TGI [6] | GI50 [7] | TGI [7] [µM] | GI50 [8] | TGI [8] | GI50 [9] | TGI [9] | GI50 [10] | TGI [10]
1 | O=C(Oc1ccc(CCl)cc1)c1ccccc1 | 0.185 µM | 0.437 µM | 0.152 µM | 0.286 µM | 0.149 µM | 0.311 µM | 0.127 µM | 0.274 µM | 0.154 µM | 0.316 | 0.238 µM | 1.09 µM | 0.322 µM | 1.15 | 0.386 µM | 1.42 µM | 0.164 µM | 0.361 µM | 0.174 µM | 0.33 µM
2 | CC1(C)N=C(N)N=C(N)N1c1cc(Cl)ccc1Cl | > 100 µM | > 100 µM | > 100 µM | > 100 µM | > 100 µM | > 100 µM | 59.1 µM | > 100 µM | 46 µM | > 100 | 60.6 µM | > 100 µM | > 100 µM | > 100 | > 100 µM | > 100 µM | > 100 µM | > 100 µM | > 100 µM | > 100 µM
3 | CN(C)CCCNC(=O)c1cc(NC(=O)c2cc(NC(=O)c3cc(NC(=O)CCc4c[nH]c5ccccc45)cn3C)cn2C)cn1C | > 100 µM | > 100 µM | > 100 µM | > 100 µM | > 100 µM | > 100 µM | 30.4 µM | 88.7 µM | > 100 µM | > 100 | > 100 µM | > 100 µM | > 100 µM | > 100 | > 100 µM | > 100 µM | > 100 µM | > 100 µM | > 100 µM | > 100 µM
4 | CCOC(=O)Oc1c(OC)cc(C(=O)O[C@@H]2C[C@@H]3CN4CCc5c([nH]c6cc(OC)ccc56)[C@H]4C[C@@H]3[C@H](C(=O)OC)[C@H]2OC)cc1OC | 15.1 µM | 58.1 µM | 4.18 µM | 14.8 µM | 2.56 µM | 19.6 µM | 6.74 µM | 27.1 µM | 5.18 µM | 18.7 | 3.8 µM | 16.6 µM | 5.24 µM | 21.8 | 14.3 µM | 27.4 µM | 6.89 µM | 20.3 µM | 14.7 µM | 42.5 µM
5 | O=[N+]([O-])/C=C/c1c[nH]c2ccccc12 | 18.1 µM | 40.4 µM | 15.4 µM | 35.6 µM | 15.2 µM | 30.7 µM | 19 µM | 35.7 µM | 14.8 µM | 28.9 | 17 µM | 46.3 µM | 15 µM | 31 | 15.2 µM | 29.1 µM | 17.4 µM | 32.3 µM | 16.8 µM | 30.7 µM
6 | COc1ccc(-c2cn[nH]c2-c2cc(OC)c(OC)c(OC)c2)cc1N | – | > 100 µM and 56.3 µM | < 0.01 µM | > 100 µM | < 0.01 µM and 0.063 µM | > 100 µM | – | > 100 µM | < 0.01 µM | – | < 0.01 µM and 0.0343 µM | 13.3 µM and > 38.5 µM | < 0.01 µM and 0.0634 µM | > 100 | < 0.01 µM and 0.0833 µM | > 100 µM | < 0.01 µM | 70.1 µM and > 100 µM | – | > 100 µM
7 | O=C(NOCC1CC1)c1ccc(F)c(F)c1Nc1ccc(I)cc1Cl | 2.77 µM | > 52.1 µM | 2.24 µM | 9.73 µM | 0.672 µM | 14.7 µM | 0.0228 µM | 0.0674 µM | 1.94 µM | 8.51 | 2.42 µM | > 100 µM | 0.782 µM | 23 | 4.35 µM | > 100 µM | 0.064 µM | 1.41 µM | 1.13 µM | 18.6 µM
8 | O=C1c2ccccc2-c2c1c1ccccc1c(=O)n2CCNCCNCCn1c2c(c3ccccc3c1=O)C(=O)c1ccccc1-2 | 0.22 µM | 18.9 µM | 0.542 µM | 12.3 µM | 0.432 µM | 5.72 µM | 0.207 µM | 16.2 µM | 2.28 µM | – | 0.0246 µM | 7.59 µM | 0.717 µM | > 30.6 | 12.8 µM | 36.2 µM | 0.338 µM | 8.79 µM | 1.06 µM | 4.11 µM
9 | COC(=O)Nc1nc2ccccc2c(=O)[nH]1 | – | > 100 µM | – | > 100 µM | – | > 100 µM | – | > 100 µM | – | > 100 | – | > 100 µM | – | > 100 | – | > 100 µM | – | > 100 µM | – | > 100 µM
10 | COc1ccc(-c2nc(-c3cn(C)c4ncccc34)cs2)cc1 | > 100 µM | > 100 µM | 92.7 µM | > 100 µM | 75.3 µM | > 100 µM | 22.2 µM | > 100 µM | 14.9 µM | > 100 | 32.9 µM | > 100 µM | > 100 µM | > 100 | > 100 µM | > 100 µM | 13 µM | > 100 µM | > 100 µM | > 100 µM
11 | C[C@]12CCC(=O)C(O)=C1CC[C@@H]1[C@@H]2CC[C@]2(C)C(=O)CC[C@@H]12 | – | > 100 µM | – | > 100 µM | – | > 100 µM | – | > 100 µM | – | > 100 | – | > 100 µM | – | > 100 | – | > 100 µM | – | > 100 µM | – | > 100 µM
12 | CNC(=O)c1cccc(-c2ccc3c(N4CCOC[C@@H]4C)nc(N4CCOC[C@@H]4C)nc3n2)c1 | 0.0438 µM and 0.149 µM and 0.115 µM | 0.77 µM and 2.9 µM and 0.959 µM | 0.15 µM and 0.166 µM and 0.125 µM | 1.49 µM and 1.26 µM and 0.677 µM | 0.181 µM and 0.168 µM and 0.184 µM | 34.3 µM and > 10 µM and > 64 µM | 0.0201 µM and 0.0351 µM and < 0.0204 µM | 0.55 µM and 0.524 µM and 0.138 µM | 0.0505 µM and 0.0991 µM and 0.0479 µM | > 100 | 0.0422 µM and 0.0853 µM and 0.0538 µM | > 100 µM | 0.111 µM and 0.273 µM and 0.245 µM | > 100 | 0.0333 µM and 0.0903 µM and 0.0446 µM | 0.479 µM and 0.451 µM and 0.438 µM | 0.0393 µM and 0.082 µM and 0.0802 µM | 0.339 µM and 0.438 µM and 0.452 µM | 0.0616 µM and 0.146 µM and 0.113 µM | 2.25 µM and 1.63 µM and 1.48 µM
13 | O=C(NC(=S)Nc1ccc(Cl)cc1)c1ccccc1 | > 100 µM | > 100 µM | > 90.7 µM | > 100 µM | > 51.6 µM | > 100 µM | > 100 µM | > 100 µM | > 100 µM | > 100 | > 100 µM | > 100 µM | > 100 µM | > 100 | > 100 µM | > 100 µM | > 50.4 µM | > 100 µM | > 100 µM | > 100 µM
